Reference: PubChem BioAssay AID330 (DTP/NCI, 2004)
“And” between values parts separate entries of the source, which are not always exact repeats. Identical values can stand only once. Inconclusive results and toxic doses are left out. The calls were made as follows: active = survival T/C of 150% or more; inactive = T/C below 125% in these data.

System: P388 leukemia ip, CD2F1 mice, survival T/C
Test: NCI In Vivo Anticancer Drug Screen. Data for tumor model P388 Leukemia (intraperitoneal) in CD2F1 (CDF1) mice
Conditions: endpoint: median survival time, higher = longer survival
Outline: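 Mice carrying the transplanted tumor received test compound or vehicle. Survival was recorded in each group, and the value is the treated-group measurement divided by that of the vehicle-treated control group.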

[1] = dose: 60.0 mg/kg/injection, schedule: Q01DX005 (ip), vehicle: saline with Tween-80
[2] = dose: 120.0 mg/kg/injection, schedule: Q01DX005 (ip), vehicle: saline with Tween-80
[3] = dose: 240.0 mg/kg/injection, schedule: Q01DX005 (ip), vehicle: saline with Tween-80
[4] = dose: 50.0 mg/kg/injection, schedule: Q01DX005 (ip), vehicle: Klucel (hydroxypropylcellulose) (HPC)
[5] = dose: 100.0 mg/kg/injection, schedule: Q01DX005 (ip), vehicle: Klucel (hydroxypropylcellulose) (HPC)
[6] = dose: 25.0 mg/kg/injection, schedule: Q01DX009 (ip), vehicle: water
[7] = dose: 200.0 mg/kg/injection, schedule: Q01DX009 (ip), vehicle: water
[8] = dose: 50.0 mg/kg/injection, schedule: Q01DX005 (ip), vehicle: saline
[9] = dose: 100.0 mg/kg/injection, schedule: Q01DX005 (ip), vehicle: saline
[10] = dose: 200.0 mg/kg/injection, schedule: Q01DX005 (ip), vehicle: saline
[11] = dose: 50.0 mg/kg/injection, schedule: Q01DX009 (ip), vehicle: Klucel (hydroxypropylcellulose) (HPC)
[12] = dose: 100.0 mg/kg/injection, schedule: Q01DX009 (ip), vehicle: Klucel (hydroxypropylcellulose) (HPC)
[13] = dose: 200.0 mg/kg/injection, schedule: Q01DX009 (ip), vehicle: Klucel (hydroxypropylcellulose) (HPC)
[14] = dose: 25.0 mg/kg/injection, schedule: Q01DX009 (ip), vehicle: saline with Tween-80
[15] = dose: 50.0 mg/kg/injection, schedule: Q01DX009 (ip), vehicle: saline with Tween-80
[16] = dose: 100.0 mg/kg/injection, schedule: Q01DX009 (ip), vehicle: saline with Tween-80
[17] = dose: 50.0 mg/kg/injection, schedule: Q01DX009 (ip), vehicle: saline
[18] = dose: 100.0 mg/kg/injection, schedule: Q01DX009 (ip), vehicle: saline
[19] = dose: 200.0 mg/kg/injection, schedule: Q01DX009 (ip), vehicle: saline

Measured: T/C

COC(=O)c1nnn(-c2ccc(Cl)cc2C)c1N
inactive: [1] 96 % of control | [2] 97 % of control | [3] 91 % of control

COCC12CN(C)C3C4C(OC)C1C3(C(OC)CC2O)C1CC2(O)C(OC)C(O)C4(OC(C)=O)C1C2OC(=O)c1ccccc1 (stereo unspecified)
inactive: dose: 0.09 mg/kg/injection, schedule: Q01DX005 (ip), vehicle: Klucel (hydroxypropylcellulose) (HPC) 100 % of control | dose: 12.0 micrograms/kg/injection, schedule: Q01DX005 (ip), vehicle: Klucel (hydroxypropylcellulose) (HPC) 91 % of control | dose: 24.0 micrograms/kg/injection, schedule: Q01DX005 (ip), vehicle: Klucel (hydroxypropylcellulose) (HPC) 98 % of control and 101 % of control | dose: 48.0 micrograms/kg/injection, schedule: Q01DX005 (ip), vehicle: Klucel (hydroxypropylcellulose) (HPC) 100 % of control and 101 % of control

COc1ccc(N=C(CC(C)C)C2C(=O)c3ccccc3C2=O)cc1
inactive: [4] 100 % of control | [5] 109 % of control | dose: 200.0 mg/kg/injection, schedule: Q01DX005 (ip), vehicle: Klucel (hydroxypropylcellulose) (HPC) 104 % of control

COc1ccc2cc(C(=O)c3cc4ccc(OC)cc4oc3=O)c(=O)oc2c1
inactive: [1] 104 % of control | [2] 101 % of control | [3] 96 % of control

Cc1cccnc1Br
inactive: [6] 96 % of control | [7] 89 % of control

CNc1nc(N)nc(Nc2ccc(I)cc2)c1N=O
inactive: dose: 100.0 mg/kg/injection, schedule: Q04DX003 (ip), vehicle: saline with Tween-80 109 % of control | dose: 200.0 mg/kg/injection, schedule: Q04DX003 (ip), vehicle: saline with Tween-80 109 % of control | dose: 400.0 mg/kg/injection, schedule: Q04DX003 (ip), vehicle: saline with Tween-80 109 % of control

Cc1ccc(S(=O)(=O)N/N=C/c2c(Br)nc3sccn23)cc1
inactive: dose: 100.0 mg/kg/injection, schedule: Q01DX001 (ip), vehicle: Klucel (hydroxypropylcellulose) (HPC) 106 % of control | dose: 200.0 mg/kg/injection, schedule: Q01DX001 (ip), vehicle: Klucel (hydroxypropylcellulose) (HPC) 108 % of control | dose: 400.0 mg/kg/injection, schedule: Q01DX001 (ip), vehicle: Klucel (hydroxypropylcellulose) (HPC) 106 % of control

CC1C(c2ccccc2)OCN1C (stereo unspecified)
inactive: dose: 12.5 mg/kg/injection, schedule: Q01DX005 (ip), vehicle: saline 110 % of control and 88 % of control | dose: 25.0 mg/kg/injection, schedule: Q01DX005 (ip), vehicle: saline 100 % of control and 116 % of control | [8] 110 % of control [middle of 5 runs] | [9] 118 % of control and 109 % of control | [10] 116 % of control

CCN(CC)Cc1cc(N=Nc2c(O)ccc3c(N=Nc4ccc(O)c(CN(CC)CC)c4)c(O)ccc23)ccc1O
inactive: [4] 108 % of control | [5] 109 % of control

Clc1ccccc1C=Nc1ccc(N=Cc2ccccc2Cl)cc1
inactive: dose: 100.0 mg/kg/injection, schedule: Q04DX002 (ip), vehicle: saline with Tween-80 97 % of control | dose: 200.0 mg/kg/injection, schedule: Q04DX002 (ip), vehicle: saline with Tween-80 91 % of control | dose: 400.0 mg/kg/injection, schedule: Q04DX002 (ip), vehicle: saline with Tween-80 92 % of control

O=C(C[n+]1cccc2ccccc21)c1ccc(F)cc1
inactive: [11] 119 % of control | [12] 97 % of control | [13] 91 % of control

Cc1ccc(Oc2nc(=O)c3c(o2)CC(C)(C)C3)cc1
inactive: dose: 12.5 mg/kg/injection, schedule: Q01DX009 (ip), vehicle: saline with Tween-80 106 % of control | [14] 106 % of control and 112 % of control | [15] 103 % of control and 106 % of control and 114 % of control | [16] 120 % of control and 96 % of control

O=C1C(=O)c2nc3ccccc3nc2-c2ccccc21
inactive: dose: 25.0 mg/kg/injection, schedule: Q01DX005 (ip), vehicle: water 103 % of control | dose: 50.0 mg/kg/injection, schedule: Q01DX005 (ip), vehicle: water 97 % of control | dose: 100.0 mg/kg/injection, schedule: Q01DX005 (ip), vehicle: water 100 % of control | dose: 200.0 mg/kg/injection, schedule: Q01DX005 (ip), vehicle: water 96 % of control | dose: 400.0 mg/kg/injection, schedule: Q01DX005 (ip), vehicle: water 104 % of control

CC(C)C(=O)CCC(=O)O
inactive: [8] 106 % of control | [9] 97 % of control | [10] 98 % of control

Cc1ccc(S(=O)(=O)N/N=C/c2ccc(O)c(S(=O)(=O)O)c2)cc1
inactive: dose: 12.5 mg/kg/injection, schedule: Q01DX009 (ip), vehicle: water 97 % of control | [6] 101 % of control | dose: 50.0 mg/kg/injection, schedule: Q01DX009 (ip), vehicle: water 101 % of control | dose: 100.0 mg/kg/injection, schedule: Q01DX009 (ip), vehicle: water 110 % of control | [7] 99 % of control

CCOC([O-])=N/C(C)=N/[n+]1ccccc1
inactive: [17] 104 % of control | [18] 104 % of control | [19] 98 % of control

O=C(Cc1ccc(CC(=O)NCCCCc2ccccc2)cc1)NCCCCc1ccccc1
inactive: [1] 88 % of control | [2] 88 % of control | [3] 86 % of control

CCOC(=O)c1ccc(NC(C)=O)cc1
inactive: [12] 100 % of control | [13] 107 % of control | dose: 400.0 mg/kg/injection, schedule: Q01DX009 (ip), vehicle: Klucel (hydroxypropylcellulose) (HPC) 112 % of control

N=C1C=C(N)CS1
inactive: [17] 87 % of control | [18] 86 % of control | [19] 88 % of control

O=c1c2c([nH]n1-c1ccccc1)-c1ccccc1CS2
inactive: [14] 105 % of control | [15] 104 % of control | [16] 117 % of control

COc1ccc(NS(=O)(=O)c2ccc(C)cc2)c([N+](=O)[O-])c1
inactive: [11] 116 % of control | [12] 115 % of control | [13] 115 % of control

COC(=O)C1=C(N2CCCC2)C2c3ccccc3SC12C(=O)OC (stereo unspecified)
inactive: dose: 60.0 mg/kg/injection, schedule: Q01DX005 (ip), vehicle: Klucel (hydroxypropylcellulose) (HPC) 104 % of control | dose: 120.0 mg/kg/injection, schedule: Q01DX005 (ip), vehicle: Klucel (hydroxypropylcellulose) (HPC) 98 % of control | dose: 240.0 mg/kg/injection, schedule: Q01DX005 (ip), vehicle: Klucel (hydroxypropylcellulose) (HPC) 94 % of control

CCOC(=O)/C=C1\NC(=O)N(CCCCCCN2C(=O)N/C(=C\C(=O)OCC)C2=O)C1=O
inactive: [15] 101 % of control | [16] 93 % of control | dose: 200.0 mg/kg/injection, schedule: Q01DX009 (ip), vehicle: saline with Tween-80 93 % of control

CC1(C)CC2(C)OC2C2(C1)N=NC(=O)O2 (stereo unspecified)
inactive: dose: 50.0 mg/kg/injection, schedule: Q01DX009 (ip), vehicle: saline + alcohol 90 % of control | [15] 89 % of control | dose: 100.0 mg/kg/injection, schedule: Q01DX009 (ip), vehicle: saline + alcohol 100 % of control | [16] 87 % of control | dose: 200.0 mg/kg/injection, schedule: Q01DX009 (ip), vehicle: saline + alcohol 93 % of control | dose: 400.0 mg/kg/injection, schedule: Q01DX009 (ip), vehicle: saline + alcohol 108 % of control
